Experimental data taken from patent US5578620A, “Thiazolidine and oxazolidine derivatives, their preparation and their medical use” (Sankyo Company, Limited, priority 1994, dated 1996).
pIC50: −log10 of the molar value.

Legend:
[1] = tested on: blood glucose level (BGL); assay: Hypoglycemic activity (blood glucose lowering rate) in hyperglycemic KK mice; assay type: in vivo, male mice of the KK strain; conditions: Mus musculus, oral, 18 hours
Description: The test animals used were hyperglycemic male mice of the KK strain, each having a body weight more than 40 g. Each animal was orally administered a test compound in the amount shown in the following Table 8 and then allowed to feed freely for 18 hours. At the end of this time, blood was collected from the tail veins without anesthesia. The blood glucose level (BGL) was determined by means of a glucose analyzer (GL-101, manufactured by Mitsubishi Kasei Co. or Glucoroder manufactured by Shino Test Co.).
The blood glucose lowering rate was calculated by the following equation:
Blood glucose lowering rate (%)=
BGLs is the BGL in the group administered a solvent only, but no active compound; and
BGLt is the BGL in the group administered a test compound.
The results are shown in the following Table 8, in which each compound of the present invention is identified by the number of one of the following Examples in which its preparation is illustrated.

[2] = Toxicity, oral administration for 2 weeks; assay type: in vivo, male F344 rats; conditions: 50 mg/kg; for mortality rate: male F344 rats, oral, 2 weeks
Description: The toxicity of the compounds of the present invention was tested on male F344 rats, divided into groups of 5. The test compound was adminstered orally to each test animal at a dose of 50 mg/kg of body weight for 2 weeks. The test compounds used were those of Examples 20, 45 (polar, less polar) and 47 (polar).

[3] = molecular target: T1, Bovine lens aldose reductase (Bos taurus, UniProt P16116); assay: Inhibition of Aldose reductase; assay type: biochemical; conditions: for inhibition at 5 µg/mL: read-out: Inhibition at 5 μg/ml
T1 construct: Bovine lens aldose reductase was separated and partially purified; from tissue; host or cells: bovine lens
Description: Bovine lens aldose reductase was separated and partially purified by the method of S. Hyman and J. H. Kinoshita [J. Biol. Chem., 240, 877 (1965)] and K. Inagaki, I. Miwa and J. Okuda [Arch. Biochem. Biophys., 316, 337 (1982)], and its activity was determined photometrically by the method of Varma et al. [Biochem. Pharmac., 25, 2505 (1976)]. […]

Row | pIC50 [3] | inhibition at 5 µg/mL [3] [%] | SMILES | inhibition in vivo at 1 mg/kg [1] [%] | further results
1 |  |  | C[C@H](COc1ccc(CC2SC(=O)NC2=O)cc1)N1C[C@@H](COc2cccc(Cl)c2)OC1=O (stereo partly drawn) [Example 11, 5-[4-{2(R)-[5(S)-(3-Chlorophenoxymethyl)-2-oxooxazolidin-3-yl]propoxy}benzyl]thiazolidine-2,4-dione] | 24.3 | 
2 |  |  | CC(COc1ccc(CC2SC(=O)NC2=O)cc1)N1CC(COc2cccc(Cl)c2)OC1=S (single isomer, unassigned) [Example 45 (less polar), 5-{4-[2-(5-3'-Chlorophenoxymethyl-2-thioxooxazolidin-3-yl)propoxy]benzyl}thiazolidine-2,4-dione] | 27.2 | mortality rate [2]: zero; abnormalities observed during 2 successive weeks ([2]; rat, in vivo, po): no abnormalities which could be attributed to the test coumpounds; hematological examinations (red blood cell counts) ([2]; rat, in vivo, po): slighly decrease in red blood cell counts
3 |  |  | O=C1NC(=O)C(Cc2ccc(OCCN3CC(COc4cccc(Cl)c4)OC3=O)cc2)S1 (centres unmarked) [Example 6, 5-{4-[2-(5-3'-Chlorophenoxymethyl-2-oxooxazolidin-3-yl)ethoxy]benzyl}thiazolidine-2,4-dione] | 19.2 | 
4 |  |  | CCCC(COc1ccc(CC2SC(=O)NC2=O)cc1)N1CC(COc2cccc(Cl)c2)OC1=O (single isomer, unassigned) [Example 50 (less polar), 5-{4-[2-(5-3'-Chlorophenoxymethyl-2-oxooxazolidin-3-yl)pentyloxy]benzyl}thiazolidine-2,4-dione] | 17.5 | 
5 |  |  | CC(COc1ccc(CC2SC(=O)NC2=O)cc1)N1CC(COc2ccc(-c3ccccc3)cc2)OC1=S (centres unmarked) [36 (polar), 5-{4-[2-(5-4'-Phenylphenoxymethyl-2-thioxooxazolidin-3-yl)propoxy]benzyl}thiazolidine-2,4-dione] | 13.7 | 
6 |  |  | CC(COc1ccc(CC2SC(=O)NC2=O)cc1)N1CC(COCCCCCCCCc2ccccc2)OC1=O (centres unmarked) [Example 28, 5-{4-[2-(5-8'-Phenyloctyloxymethyl-2-oxooxazolidin-3-yl)propoxy]benzyl}thiazolidine-2,4-dione] | 13.6 | 
7 |  |  | CC(C)C(COc1ccc(CC2SC(=O)NC2=O)cc1)N1CC(COc2cccc(Cl)c2)OC1=O (centres unmarked) [51 (polar), 5-{4-[2-(5-3'-Chlorophenoxymethyl-2-oxooxazolidin-3-yl)-3-methylbutoxy]benzyl}thiazolidine-2,4-dione] | 20.8 | 
8 |  |  | CC(COc1ccc(CC2SC(=O)NC2=O)cc1)N1CC(COCCCCCCCc2ccccc2)OC1=O (centres unmarked) [Example 29, 5-{4-[2-(5-7'-Phenylheptyloxymethyl-2-oxooxazolidin-3-yl)propoxy]benzyl}thiazolidine-2,4-dione] | 18.1 | 
9 | 5.41 | 67.8 | COc1ccc(OCC2CN(C(C)COc3ccc(CC4SC(=O)NC4=O)cc3)C(=O)O2)cc1 (single isomer, unassigned) [31 (less polar), 5-{4-[2-(5-4'-Methoxyphenoxymethyl-2-oxooxazolidin-3-yl)propoxy]benzyl}thiazolidine-2,4-dione] | 21.6 | 
10 | 5.44 | 70.1 | CC(COc1ccc(CC2SC(=O)NC2=O)cc1)N1CC(COCc2ccccc2)OC1=O (centres unmarked) [Example 22, 5-{4-[2-(5-Benzyloxymethyl-2-oxooxazolidin-3-yl)propoxy]benzyl}thiazolidine-2,4-dione] | 14.3 | 
11 |  |  | CC(COc1ccc(CC2SC(=O)NC2=O)cc1)N1CC(COc2ccc(-c3ccccc3)cc2)OC1=O (centres unmarked) [Example 35, 5-{4-[2-(5-4'-Phenylphenoxymethyl-2-oxooxazolidin-3-yl)propoxy]benzyl}thiazolidine-2,4-dione] | 13.5 | 
12 |  |  | CC(COc1ccc(CC2SC(=O)NC2=O)cc1)NCC(O)COCCc1ccccc1 (centres unmarked) [Example 18, 5-{4-[2'-(3-2'-phenylethoxy-2-hydroxypropylamino)propoxy]benzyl}thiozolidine-2,4-dione] | 10.5 | 
13 |  |  | C[C@@H](COc1ccc(CC2SC(=O)NC2=O)cc1)N1C[C@@H](COc2cccc(Cl)c2)OC1=O (stereo partly drawn) [Example 13, 5-[4-{2(S)-[5(S)-(3-Chlorophenoxymethyl)-2-oxooxazolidin-3-yl]propoxy}benzyl]thiazolidine-2,4-dione] | 29.9 | 
14 |  |  | CC(COc1ccc(CC2SC(=O)NC2=O)cc1)NCC(O)COCc1ccccc1 (centres unmarked) [Example 15, 5-{4-[2-(3-Benzyloxy-2-hydroxypropylamino)propoxy]benzyl}thiazolidine-2,4-dione] | 19.1 | 
15 | 5.18 | 57.4 | CC(COc1ccc(CC2SC(=O)NC2=O)cc1)NCC(O)COCc1cccc(Cl)c1 (centres unmarked) [Example 41, 5-{4-[2-(3-3'-Chlorobenzyloxy-2-hydroxypropylamino)propoxy]benzyl}thiazolidine-2,4-dione] | 18.2 | 
16 |  |  | CC(COc1ccc(CC2SC(=O)NC2=O)cc1)N1CC(COc2cccc(Cl)c2)OC1=S (centres unmarked) [45 (polar), 5-{4-[2-(5-3'-Chlorophenoxymethyl-2-thioxooxazolidin-3-yl)propoxy]benzyl}thiazolidine-2,4-dione] | 23.9 | mortality rate [2]: zero; abnormalities observed during 2 successive weeks ([2]; rat, in vivo, po): no abnormalities which could be attributed to the test coumpounds
17 | 5.18 | 59.2 | CC(COc1ccc(CC2SC(=O)NC2=O)cc1)NCC(O)COCCCCCc1ccccc1 (centres unmarked) [Example 16, 5-{4-[2-(3-5'-Phenylpentyloxy-2-hydroxypropylamino)propoxy]benzyl}thiazolidine-2,4-dione] |  | 
18 | 5.54 | 62.7 | CC(COc1ccc(CC2SC(=O)NC2=O)cc1)N1CCOC(COc2cccc(Cl)c2)C1 (centres unmarked) [Example 55, 5-{4-[2-(2-3'-Chlorophenoxymethylmorpholino)propoxy]benzyl}thiazolidine-2,4-dione] |  | 
19 | 6.65 | 89.6 | CC(COc1ccc(CC2SC(=O)NC2=O)cc1)N1CC(COc2cccc(Cl)c2)OC1=O (centres unmarked) [Example 1, 5-{4-[2-(5-3'-Chlorophenoxymethyl-2-oxooxazolidin-3-yl)propoxy]benzyl}thiazolidine-2,4-dione] | 28.5 | 
20 | 5.42 | 68.6 | CC(COc1ccc(CC2SC(=O)NC2=O)cc1)N1CC(COc2cccc(F)c2)OC1=O (centres unmarked) [Example 30, 5-{4-[2-(5-3'-Fluorophenoxymethyl-2-oxooxazolidin-3-yl)propoxy]benzyl}thiazolidine-2,4-dione] |  | 
21 | 5.34 | 58.7 | CC(COc1ccc(CC2SC(=O)NC2=O)cc1)NCC(O)COCCCCCCCCc1ccccc1 (centres unmarked) [Example 21, 5-{4-[2-(3-8'-Phenyloctyloxy-2-hydroxypropylamino)propoxy]benzyl}thiazolidine-2,4-dione] |  | 
22 |  |  | CC(COc1ccc(CC2SC(=O)NC2=O)cc1)NCC(O)Cc1ccccc1 (centres unmarked) [Example 7, 5-{4-[2-(3-Phenyl-2-hydroxypropylamino)propoxy]benzyl}thiazolidine-2,4-dione] | 36.3 | 
23 | 5.62 | 77.6 | O=C1NC(=O)C(Cc2ccc(OCCCN3CC(COc4ccccc4)OC3=O)cc2)S1 (centres unmarked) [Example 53, 5-{4-[3-(5-Phenoxymethyl-2-oxooxazolidin-3-yl)propoxy]benzyl}thiazolidine-2,4-dione] |  | 

Row | SMILES | pIC50 [3] | inhibition at 5 µg/mL [3] [%] | inhibition in vivo at 1 mg/kg [1] [%] | further results
24 | CCC(COc1ccc(CC2SC(=O)NC2=O)cc1)N1CC(COc2cccc(Cl)c2)OC1=O (centres unmarked) [47 (polar), 5-{4-[2-(5-3'-Chlorophenoxymethyl-2-oxooxazolidin-3-yl)butoxy]benzyl}thiazolidine-2,4-dione] | 6.34 | 86.6 | 34.7 | mortality rate [2]: zero; abnormalities observed during 2 successive weeks ([2]; rat, in vivo, po): no abnormalities which could be attributed to the test coumpounds
25 | O=C1NC(=O)C(Cc2ccc(OCCCCN3CC(COc4cccc(Cl)c4)OC3=O)cc2)S1 (centres unmarked) [Example 54, 5-{4-[4-(5-3'-Chlorophenoxymethyl-2-oxooxazolidin-3-yl)butoxy]benzyl}thiazolidine-2,4-dione] | 5.70 | 69.1 |  | 
26 | CC(COc1ccc(CC2SC(=O)NC2=O)cc1)N1CC(COCCCCc2ccccc2)OC1=O (single isomer, unassigned) [25 (less polar), 5-{4-[2-(5-4'-Phenylbutoxymethyl-2-oxooxazolidin-3-yl)propoxy]benzyl}thiazolidine-2,4-dione] | 5.41 | 57.1 |  | 
27 | CC(COc1ccc(CC2SC(=O)NC2=O)cc1)NCC(O)COCCCCc1ccccc1 (centres unmarked) [Example 19, 5-{4-[2-(3-4'-Phenylbutoxy-2-hydroxypropylamino)propoxy]benzyl}thiazolidine-2,4-dione] | 5.10 | 56.1 | 15.8 | 
